Test results published in patent US20220281848A1, “PYRAZOLE-SUBSTITUTED PYRROLIDINONES AS HERBICIDES” (FMC Corporation, priority 2019, published 2022).

How the values were obtained:
Type in all cases: in vivo
Details in all cases: after 13 d
[1] = system: redroot pigweed (Amaranthus retroflexus, AMARE); experiment: Test A post-emergence, redroot pigweed
Experimental: (§1) Seeds of corn (Zea mays, ZEAMX), giant foxtail (Setaria faberi, SETFA), barnyardgrass (Echinochloa crus-galli, ECHCG), ivy-leaved morning glory (Ipomoea hederacea, IPOHE)), redroot pigweed (Amaranthus retroflexus, AMARE) and velvetleaf (Abutilon theophrasti, ABUTH) were sown in standard soil in pots. After cultivation for 8 d under controlled conditions in a glasshouse (at 24/16° C., day/night; 14 h light; 65% humidity), the plants were sprayed with an aqueous spray solution derived from the formulation of the technical active ingredient in acetone/water (50:50) solution containing 0.5% Tween 20 (polyoxyethylene sorbitan monolaurate, CAS RN 9005-64-5) to give a final dose of 15.625, 62.5 or 250 g/ha of test compound.
(§2) The test plants were then grown on under controlled conditions in a glasshouse (at 24/16° C., day/night; 14 h light; 65% humidity) and watered twice daily. After 13 d the test was evaluated (100=total damage to plant; 0=no damage to plant).

[2] = system: velvetleaf (Abutilon theophrasti, ABUTH); experiment: Test A post-emergence, velvetleaf
Experimental: as §1, §2

[3] = system: ivy-leaved morning glory (Ipomoea hederacea, IPOHE); experiment: Test A pre-emergence, ivy-leaved morning glory
Experimental: as §1, with “IPOHE),” for “IPOHE)),”, “one day” for “8 d”
(§3) The test plants were then grown under controlled conditions in a glasshouse (at 24/16° C., day/night; 14 h light; 65% humidity) and watered twice daily. After 13 d the test was evaluated (100=total damage to plant; 0=no damage to plant).

[4] = system: redroot pigweed (Amaranthus retroflexus, AMARE); experiment: Test A pre-emergence, redroot pigweed
Experimental: as §1, with “IPOHE),” for “IPOHE)),”, “one day” for “8 d”
as §3

corn (Zea mays, ZEAMX) [5] = experiment: Test A post-emergence, corn
Experimental: as §1, §2

[6] = system: barnyardgrass (Echinochloa crus-galli, ECHCG); experiment: Test A pre-emergence, barnyardgrass
Experimental: as §1, with “IPOHE),” for “IPOHE)),”, “one day” for “8 d”
as §3

[7] = system: ivy-leaved morning glory (Ipomoea hederacea, IPOHE); experiment: Test A post-emergence, ivy-leaved morning glory
Experimental: as §1, §2

corn (Zea mays, ZEAMX) [8] = experiment: Test A pre-emergence, corn
Experimental: as §1, with “IPOHE),” for “IPOHE)),”, “one day” for “8 d”
as §3

[9] = system: barnyardgrass (Echinochloa crus-galli, ECHCG); experiment: Test A post-emergence, barnyardgrass
Experimental: as §1, §2

[10] = system: giant foxtail (Setaria faberi, SETFA); experiment: Test A post-emergence, giant foxtail
Experimental: as §1, §2

[11] = system: giant foxtail (Setaria faberi, SETFA); experiment: Test A pre-emergence, giant foxtail
Experimental: as §1, with “IPOHE),” for “IPOHE)),”, “one day” for “8 d”
as §3

[12] = system: velvetleaf (Abutilon theophrasti, ABUTH); experiment: Test A pre-emergence, velvetleaf
Experimental: as §1, with “IPOHE),” for “IPOHE)),”, “one day” for “8 d”
as §3

SMILES: CN1CC(c2nn(C)c(Cl)c2Br)C(C(=O)Nc2ccc(F)cc2F)C1=O (racemic) [Compound 30]
- damage to plant (100=total damage; 0=no damage) AMARE ([1]; Post-Emergence at 15.625 g/ha): 0
- damage to plant (100=total damage; 0=no damage) AMARE ([1]; Post-Emergence at 62.5 g/ha): 0
- damage to plant (100=total damage; 0=no damage) AMARE ([1]; Post-Emergence at 250 g/ha): 10
- damage to plant (100=total damage; 0=no damage) ABUTH ([2]; Post-Emergence at 15.625 g/ha): 0
- damage to plant (100=total damage; 0=no damage) ABUTH ([2]; Post-Emergence at 62.5 g/ha): 0
- damage to plant (100=total damage; 0=no damage) ABUTH ([2]; Post-Emergence at 250 g/ha): 0
- damage to plant (100=total damage; 0=no damage) IPOHE ([3]; Pre-Emergence at 15.625 g/ha): 0
- damage to plant (100=total damage; 0=no damage) IPOHE ([3]; Pre-Emergence at 62.5 g/ha): 0
- damage to plant (100=total damage; 0=no damage) IPOHE ([3]; Pre-Emergence at 250 g/ha): 10
- damage to plant (100=total damage; 0=no damage) AMARE ([4]; Pre-Emergence at 15.625 g/ha): 0
- damage to plant (100=total damage; 0=no damage) AMARE ([4]; Pre-Emergence at 62.5 g/ha): 0
- damage to plant (100=total damage; 0=no damage) AMARE ([4]; Pre-Emergence at 250 g/ha): 10
- damage to plant (100=total damage; 0=no damage) ZEAMX (corn (Zea mays, ZEAMX) [5]; Post-Emergence at 15.625 g/ha): 0
- damage to plant (100=total damage; 0=no damage) ZEAMX (corn (Zea mays, ZEAMX) [5]; Post-Emergence at 62.5 g/ha): 0
- damage to plant (100=total damage; 0=no damage) ZEAMX (corn (Zea mays, ZEAMX) [5]; Post-Emergence at 250 g/ha): 0
- damage to plant (100=total damage; 0=no damage) ECHCG ([6]; Pre-Emergence at 15.625 g/ha): 0
- damage to plant (100=total damage; 0=no damage) ECHCG ([6]; Pre-Emergence at 62.5 g/ha): 10
- damage to plant (100=total damage; 0=no damage) ECHCG ([6]; Pre-Emergence at 250 g/ha): 20
- damage to plant (100=total damage; 0=no damage) IPOHE ([7]; Post-Emergence at 15.625 g/ha): 0
- damage to plant (100=total damage; 0=no damage) IPOHE ([7]; Post-Emergence at 62.5 g/ha): 0
- damage to plant (100=total damage; 0=no damage) IPOHE ([7]; Post-Emergence at 250 g/ha): 0
- damage to plant (100=total damage; 0=no damage) ZEAMX (corn (Zea mays, ZEAMX) [8]; Pre-Emergence at 15.625 g/ha): 0
- damage to plant (100=total damage; 0=no damage) ZEAMX (corn (Zea mays, ZEAMX) [8]; Pre-Emergence at 62.5 g/ha): 0
- damage to plant (100=total damage; 0=no damage) ZEAMX (corn (Zea mays, ZEAMX) [8]; Pre-Emergence at 250 g/ha): 0
- damage to plant (100=total damage; 0=no damage) ECHCG ([9]; Post-Emergence at 15.625 g/ha): 0
- damage to plant (100=total damage; 0=no damage) ECHCG ([9]; Post-Emergence at 62.5 g/ha): 20
- damage to plant (100=total damage; 0=no damage) ECHCG ([9]; Post-Emergence at 250 g/ha): 50
- damage to plant (100=total damage; 0=no damage) SETFA ([10]; Post-Emergence at 15.625 g/ha): 10
- damage to plant (100=total damage; 0=no damage) SETFA ([10]; Post-Emergence at 62.5 g/ha): 20
- damage to plant (100=total damage; 0=no damage) SETFA ([10]; Post-Emergence at 250 g/ha): 50
- damage to plant (100=total damage; 0=no damage) SETFA ([11]; Pre-Emergence at 15.625 g/ha): 0
- damage to plant (100=total damage; 0=no damage) SETFA ([11]; Pre-Emergence at 62.5 g/ha): 0
- damage to plant (100=total damage; 0=no damage) SETFA ([11]; Pre-Emergence at 250 g/ha): 10
- damage to plant (100=total damage; 0=no damage) ABUTH ([12]; Pre-Emergence at 15.625 g/ha): 0
- damage to plant (100=total damage; 0=no damage) ABUTH ([12]; Pre-Emergence at 62.5 g/ha): 0
- damage to plant (100=total damage; 0=no damage) ABUTH ([12]; Pre-Emergence at 250 g/ha): 0

SMILES: CCn1nc(C2CN(C)C(=O)C2C(=O)Nc2cccc(F)c2F)c2cccc(F)c21 (racemic) [Compound 10]
- damage to plant (100=total damage; 0=no damage) AMARE ([1]; Post-Emergence at 15.625 g/ha): 0
- damage to plant (100=total damage; 0=no damage) AMARE ([1]; Post-Emergence at 62.5 g/ha): 0
- damage to plant (100=total damage; 0=no damage) AMARE ([1]; Post-Emergence at 250 g/ha): 0
- damage to plant (100=total damage; 0=no damage) ABUTH ([2]; Post-Emergence at 15.625 g/ha): 0
- damage to plant (100=total damage; 0=no damage) ABUTH ([2]; Post-Emergence at 62.5 g/ha): 0
- damage to plant (100=total damage; 0=no damage) ABUTH ([2]; Post-Emergence at 250 g/ha): 10
- damage to plant (100=total damage; 0=no damage) IPOHE ([3]; Pre-Emergence at 15.625 g/ha): 0
- damage to plant (100=total damage; 0=no damage) IPOHE ([3]; Pre-Emergence at 62.5 g/ha): 30
- damage to plant (100=total damage; 0=no damage) IPOHE ([3]; Pre-Emergence at 250 g/ha): 0
- damage to plant (100=total damage; 0=no damage) AMARE ([4]; Pre-Emergence at 15.625 g/ha): 0
- damage to plant (100=total damage; 0=no damage) AMARE ([4]; Pre-Emergence at 62.5 g/ha): 0
- damage to plant (100=total damage; 0=no damage) AMARE ([4]; Pre-Emergence at 250 g/ha): 10
- damage to plant (100=total damage; 0=no damage) ZEAMX (corn (Zea mays, ZEAMX) [5]; Post-Emergence at 15.625 g/ha): 0
- damage to plant (100=total damage; 0=no damage) ZEAMX (corn (Zea mays, ZEAMX) [5]; Post-Emergence at 62.5 g/ha): 10
- damage to plant (100=total damage; 0=no damage) ZEAMX (corn (Zea mays, ZEAMX) [5]; Post-Emergence at 250 g/ha): 70
- damage to plant (100=total damage; 0=no damage) ECHCG ([6]; Pre-Emergence at 15.625 g/ha): 50
- damage to plant (100=total damage; 0=no damage) ECHCG ([6]; Pre-Emergence at 62.5 g/ha): 90
- damage to plant (100=total damage; 0=no damage) ECHCG ([6]; Pre-Emergence at 250 g/ha): 90
- damage to plant (100=total damage; 0=no damage) IPOHE ([7]; Post-Emergence at 15.625 g/ha): 0
- damage to plant (100=total damage; 0=no damage) IPOHE ([7]; Post-Emergence at 62.5 g/ha): 0
- damage to plant (100=total damage; 0=no damage) IPOHE ([7]; Post-Emergence at 250 g/ha): 30
- damage to plant (100=total damage; 0=no damage) ZEAMX (corn (Zea mays, ZEAMX) [8]; Pre-Emergence at 15.625 g/ha): 0
- damage to plant (100=total damage; 0=no damage) ZEAMX (corn (Zea mays, ZEAMX) [8]; Pre-Emergence at 62.5 g/ha): 70
- damage to plant (100=total damage; 0=no damage) ZEAMX (corn (Zea mays, ZEAMX) [8]; Pre-Emergence at 250 g/ha): 70
- damage to plant (100=total damage; 0=no damage) ECHCG ([9]; Post-Emergence at 15.625 g/ha): 60
- damage to plant (100=total damage; 0=no damage) ECHCG ([9]; Post-Emergence at 62.5 g/ha): 90
- damage to plant (100=total damage; 0=no damage) ECHCG ([9]; Post-Emergence at 250 g/ha): 90
- damage to plant (100=total damage; 0=no damage) SETFA ([10]; Post-Emergence at 15.625 g/ha): 50
- damage to plant (100=total damage; 0=no damage) SETFA ([10]; Post-Emergence at 62.5 g/ha): 80
- damage to plant (100=total damage; 0=no damage) SETFA ([10]; Post-Emergence at 250 g/ha): 90
- damage to plant (100=total damage; 0=no damage) SETFA ([11]; Pre-Emergence at 15.625 g/ha): 80
- damage to plant (100=total damage; 0=no damage) SETFA ([11]; Pre-Emergence at 62.5 g/ha): 90
- damage to plant (100=total damage; 0=no damage) SETFA ([11]; Pre-Emergence at 250 g/ha): 90
- damage to plant (100=total damage; 0=no damage) ABUTH ([12]; Pre-Emergence at 15.625 g/ha): 0
- damage to plant (100=total damage; 0=no damage) ABUTH ([12]; Pre-Emergence at 62.5 g/ha): 10
- damage to plant (100=total damage; 0=no damage) ABUTH ([12]; Pre-Emergence at 250 g/ha): 0
